target: T1, K-Ras G12C (Homo sapiens, UniProt P01116, G12C); assay: CAF assay (% CAF; method in Example 7, not in this part); type: binding; conditions: 10 uM, 1 h; Table 3
T1 construct: This protein contained 188 amino acids in total, including an N-terminal 6-Histidine tag; made in house; host or cells: E. coli BL21

**Q.** For `C=CC(=O)N1CCN(c2nc(=O)n3c4c(c(-c5ccc(F)cc5F)c(Cl)cc24)SC[C@H]3C)[C@@H](C)C1` [Example 99, (3R)-7-((S)-4-acryloyl-2-methylpiperazin-1-yl)-9-chloro-10-(2,4-difluorophenyl)-3-methyl-2H-[1,4]thiazino[2,3,4-ij]quinazolin-5(3H)-one], which “% CAF @ 10 uM, 1h” value is on record?
**A.** Its value is 87.2%.

**Q.** `C=CC(=O)N1CCN(c2nc(=O)n3c4c(c(-c5ccc(F)cc5F)c(C(F)(F)F)cc24)SCC3)C2CS(=O)(=O)CC21` (stereo not shown) [Example 100, 7-(4-acryloyl-6,6-dioxidohexahydrothieno[3,4-b]pyrazin-1(2H)-yl)-10-(2,4-difluorophenyl)-9-(trifluoromethyl)-2,3-dihydro-5H-[1,4]thiazino[2,3,4-ij]quinazolin-5-one] was tested. Which “% CAF @ 10 uM, 1h” value did it give?
**A.** The value was 94%.

**Q.** How did the “% CAF @ 10 uM, 1h” value turn out when `C=CC(=O)N1C2CC(=O)CC1CN(c1nc(=O)n3c4c(c(-c5ccc(F)cc5F)c(C(F)(F)F)cc14)SCC3)C2` [Example 101, 7-(9-acryloyl-7-oxo-3,9-diazabicyclo[3.3.1]nonan-3-yl)-10-(2,4-difluorophenyl)-9-(trifluoromethyl)-2,3-dihydro-5H-[1,4]thiazino[2,3,4-ij]quinazolin-5-one] was run?
**A.** Its value is 96.5%.

**Q.** With `C=CC(=O)N1CCN(c2nc(=O)n3c4c(c(-c5ccc(F)cc5F)c(Cl)cc24)SCCC3)[C@@H](C)C1` [Example 102, 8-((S)-4-acryloyl-2-methylpiperazin-1-yl)-10-chloro-11-(2,4-difluorophenyl)-3,4-dihydro-2H,6H-[1,4]thiazepino[2,3,4-ij]quinazolin-6-one] as the compound, how does the “% CAF @ 10 uM, 1h” value read?
**A.** Its value is 95.4%.

**Q.** How did the “% CAF @ 10 uM, 1h” value turn out when `C=CC(=O)N1CCN(c2nc(=O)n3c4c(c(-c5ccc(F)cc5F)c(OC)cc24)SCC3)[C@@H](C)C1` [Example 103, 7-((S)-4-acryloyl-2-methylpiperazin-1-yl)-10-(2,4-difluorophenyl)-9-methoxy-2,3-dihydro-5H-[1,4]thiazino[2,3,4-ij]quinazolin-5-one] was run?
**A.** Its value is 92.5%.

**Q.** Which “% CAF @ 10 uM, 1h” value does the source give for `C=CC(=O)N1CCN(c2nc(=O)n3c4c(c(-c5ccc(F)cc5F)c(Cl)cc24)SCC3)[C@@H](CC#N)C1` [Example 104, 2-((2S)-4-acryloyl-1-(9-chloro-10-(2,4-difluorophenyl)-5-oxo-2,3-dihydro-5H-[1,4]thiazino[2,3,4-ij]quinazolin-7-yl)piperazin-2-yl)acetonitrile] here?
**A.** The value was 94.4%.

**Q.** For `C=CC(=O)N1CCN(c2nc(=O)n3c4c(c(-c5cccc6c5CC(=O)N6)c(Cl)cc24)SCC3)[C@@H](C)C1` [Example 105, 7-((S)-4-acryloyl-2-methylpiperazin-1-yl)-9-chloro-10-(2-oxoindolin-4-yl)-2,3-dihydro-5H-[1,4]thiazino[2,3,4-ij]quinazolin-5-one], which “% CAF @ 10 uM, 1h” value is on record?
**A.** Its value is 18.9%.

**Q.** How did the “% CAF @ 10 uM, 1h” value turn out when `C=CC(=O)N1CCN(c2nc(=O)n3c4c(c(-c5c(F)cc(Cl)cc5F)c(Cl)cc24)SCC3)[C@@H](C)C1` [Example 106, (S)-7-(4-acryloyl-2-methylpiperazin-1-yl)-9-chloro-10-(4-chloro-2,6-difluorophenyl)-2,3-dihydro-5H-[1,4]thiazino[2,3,4-ij]quinazolin-5-one] was run?
**A.** The value was 45.2%.

**Q.** How did the “% CAF @ 10 uM, 1h” value turn out when `C=CC(=O)N1CCN(c2nc(=O)n3c4c(c(-c5c(F)cc(F)cc5F)c(Cl)cc24)SC[C@@H]3CCCN2C[C@@H]3C[C@H]2CO3)[C@@H](C)C1` [Example 109, (S)-3-(3-((1S,4S)-2-oxa-5-azabicyclo[2.2.1]heptan-5-yl)propyl)-7-((S)-4-acryloyl-2-methylpiperazin-1-yl)-9-chloro-10-(2,4,6-trifluorophenyl)-2,3-dihydro-5H-[1,4]thiazino[2,3,4-ij]quinazolin-5-one] was run?
**A.** Its value is 96.9%.

**Q.** With `C=CC(=O)N1CCN(c2nc(=O)n3c4c(c(-c5c(F)cc(F)cc5F)c(Cl)cc24)SC[C@H]3CCCN2C[C@@H]3C[C@H]2CO3)[C@@H](C)C1` [Example 110, (R)-3-(3-((1S,4S)-2-oxa-5-azabicyclo[2.2.1]heptan-5-yl)propyl)-7-((S)-4-acryloyl-2-methylpiperazin-1-yl)-9-chloro-10-(2,4,6-trifluorophenyl)-2,3-dihydro-5H-[1,4]thiazino[2,3,4-ij]quinazolin-5-one] as the compound, how does the “% CAF @ 10 uM, 1h” value read?
**A.** Its value is 96.6%.

**Q.** For `C[C@H]1CN(C(=O)/C=C/C(F)(F)F)CCN1c1nc(=O)n2c3c(c(-c4c(F)cc(F)cc4F)c(Cl)cc13)SCC2` [Example 111, (S,E)-9-chloro-7-(2-methyl-4-(4,4,4-trifluorobut-2-enoyl)piperazin-1-yl)-10-(2,4,6-trifluorophenyl)-2,3-dihydro-5H-[1,4]thiazino[2,3,4-ij]quinazolin-5-one], which “% CAF @ 10 uM, 1h” value is on record?
**A.** The value was 95.2%.

**Q.** For `C[C@H]1CN(C(=O)/C=C/C(F)(F)F)CCN1c1nc(=O)n2c3c(c(-c4ccc(F)cc4F)c(Cl)cc13)SCC2` [Example 112, 9-chloro-10-(2,4-difluorophenyl)-7-((S)-2-methyl-4-((E)-4,4,4-trifluorobut-2-enoyl)piperazin-1-yl)-2,3-dihydro-5H-[1,4]thiazino[2,3,4-ij]quinazolin-5-one], which “% CAF @ 10 uM, 1h” value is on record?
**A.** The value was 86.2%.

**Q.** For `C=C(F)C(=O)N1CCN(c2nc(=O)n3c4c(c(-c5ccc(F)cc5F)c(Cl)cc24)SCC3)[C@@H](C)C1` [Example 113, 9-chloro-10-(2,4-difluorophenyl)-7-((S)-4-(2-fluoroacryloyl)-2-methylpiperazin-1-yl)-2,3-dihydro-5H-[1,4]thiazino[2,3,4-ij]quinazolin-5-one], which “% CAF @ 10 uM, 1h” value is on record?
**A.** The value was 21.7%.

**Q.** How did the “% CAF @ 10 uM, 1h” value turn out when `C=CC(=O)N1CCN(c2nc(=O)n3c4c(c(-c5ccc(F)cc5F)c(CC)cc24)SCC3)[C@@H](C)C1` [Example 114, 7-((S)-4-acryloyl-2-methylpiperazin-1-yl)-10-(2,4-difluorophenyl)-9-ethyl-2,3-dihydro-5H-[1,4]thiazino[2,3,4-ij]quinazolin-5-one] was run?
**A.** The value was 92.8%.

**Q.** `C=CC(=O)N1CCN(c2nc(=O)n3c4c(c(-c5ccc(F)cc5F)c(C)cc24)SCC3)[C@@H](C)C1` [Example 115, 7-((S)-4-acryloyl-2-methylpiperazin-1-yl)-10-(2,4-difluorophenyl)-9-methyl-2,3-dihydro-5H-[1,4]thiazino[2,3,4-ij]quinazolin-5-one] was tested. Which “% CAF @ 10 uM, 1h” value did it give?
**A.** Its value is 94.1%.

**Q.** Which “% CAF @ 10 uM, 1h” value does the source give for `C=CC(=O)N1CCN(c2nc(=O)n3c4c(c(-c5ccc(F)cc5F)c(Cl)cc24)SCC3)CC12CCNC2=O` (stereo not shown) [Example 116, 7-(6-acryloyl-1-oxo-2,6,9-triazaspiro[4.5]decan-9-yl)-9-chloro-10-(2,4-difluorophenyl)-2,3-dihydro-5H-[1,4]thiazino[2,3,4-ij]quinazolin-5-one] here?
**A.** The value was 27.4%.

**Q.** With `C=CC(=O)N1CCN(c2nc(=O)n3c4c(c(-c5ccc(F)cc5F)c(Cl)cc24)SCC3)C2CN(S(C)(=O)=O)CC21` (stereo not shown) [Example 118, 7-(4-acryloyl-6-(methylsulfonyl)octahydro-1H-pyrrolo[3,4-b]pyrazin-1-yl)-9-chloro-10-(2,4-difluorophenyl)-2,3-dihydro-5H-[1,4]thiazino[2,3,4-ij]quinazolin-5-one] as the compound, how does the “% CAF @ 10 uM, 1h” value read?
**A.** Its value is 48.3%.

**Q.** With `C[C@H]1CN(C(=O)/C=C/C(F)F)CCN1c1nc(=O)n2c3c(c(-c4ccc(F)cc4F)c(Cl)cc13)SCC2` [Example 119, 9-chloro-7-((S)-4-((E)-4,4-difluorobut-2-enoyl)-2-methylpiperazin-1-yl)-10-(2,4-difluorophenyl)-2,3-dihydro-5H-[1,4]thiazino[2,3,4-ij]quinazolin-5-one] as the compound, how does the “% CAF @ 10 uM, 1h” value read?
**A.** Its value is 97.1%.

same assay, conditions: 10 μM, 1 h; Table 4

**Q.** `C=CC(=O)N1CCN(c2nc(=O)n3c4c(c(-c5ccc(F)cc5F)c(Cl)cc24)SC[C@H]3C)[C@@H](C)C1` [Example 99, (3R)-7-((S)-4-acryloyl-2-methylpiperazin-1-yl)-9-chloro-10-(2,4-difluorophenyl)-3-methyl-2H-[1,4]thiazino[2,3,4-ij]quinazolin-5(3H)-one] was tested. Which “% CAF @ 10 μM, 1 h” value did it give?
**A.** The value was 87.2%.

Reference: US20230107642A1 (Erasca, Inc., priority 2020, published 2023)
